Where two headings read alike, the source gives them in different places.
Tests used:
[1] = system: 229E human corona virus (hCoV); experiment: 229E live virus assay (MRC-5 cells, CPE, ATPlite readout); type: cell-based, hCoV-229E; conditions: Human coronavirus 229E, MRC5, 144 h, read-out: 229E EC50
SARS-CoV-2 3CL-protease = SARS-CoV-2 3CL-protease (Severe acute respiratory syndrome coronavirus 2, UniProt P0DTD1); experiment: SARS-CoV-2 3C-Like (3CL) Protease Fluorescence Assay (FRET); type: biochemical; conditions: test compounds 0-10 μM, duplicate
[2] = hCoV-229E in MRC-5 cells, MOI 0.05, 6 days at 34° C., ATPlite, run in duplicate
[3] = IC50, SARS-CoV-2 3CL-protease 10 nM
[4] = SARS-CoV-2 3CL-protease 10 nM, read-out: IC50

Compound: CC(C)OC(=O)N[C@H](C(=O)N(C)[C@@H](Cc1ccccc1)C(=O)N1C[C@]2(C[C@H]1C#N)C(=O)Nc1ccccc12)C(C)(C)C [Example 31]
- EC50 [1, 2]: < 100 nM

Compound: CC(C)(C)C(NC(=O)OCc1ccccc1)C(=O)N1CCC[C@H]1C(=O)N1C[C@]2(C[C@H]1C#N)C(=O)Nc1ccccc12 (stereo partly drawn) [Example 55]
- IC50 (SARS-CoV-2 3CL-protease; [3]): 100 to 1000 nM
- EC50 [1]: > 1000 nM

Compound: CC(C)[C@@H](NC(=O)OCc1ccccc1)C(=O)N[C@@H](CC(C)(C)C)C(=O)N1C[C@]2(C[C@H]1C#N)C(=O)Nc1ccccc12 [Example 87]
- EC50 [1]: > 1000 nM

Compound: CC(C)[C@H](NS(=O)(=O)c1ccc(F)cc1)C(=O)N(C)[C@@H](CC(C)(C)C)C(=O)N1C[C@]2(C[C@H]1C#N)C(=O)Nc1ccccc12 [Example 111]
- IC50 (SARS-CoV-2 3CL-protease; [3]): < 100 nM
- EC50 [1]: 100 to 1000 nM

Compound: C[C@H](NC(=O)C(F)(F)C(F)(F)F)C(=O)N(C)[C@@H](CC(C)(C)C)C(=O)N1C[C@]2(C[C@H]1C#N)C(=O)Nc1ccccc12 [Example 133]
- IC50 (SARS-CoV-2 3CL-protease; [3]): < 100 nM
- EC50 [1, 2]: < 100 nM

Compound: CC(C)C[C@@H](C(=O)N1C[C@]2(C[C@H]1C#N)C(=O)Nc1ccccc12)N(C)C(=O)[C@H](C)NC(=O)C(F)(F)F [Example 135]
- EC50 [1, 2]: < 100 nM

Compound: CC(C)C[C@@H](C(=O)N1C[C@]2(C[C@H]1C#N)C(=O)Nc1ccccc12)N(C)C(=O)[C@H](C)NC(=O)C(F)(F)C(F)(F)F [Example 136]
- IC50 (SARS-CoV-2 3CL-protease; [4]): < 100 nM
- EC50 [1, 2]: < 100 nM

Compound: CC(C)C[C@@H](C(=O)N1C[C@]2(C[C@H]1C#N)C(=O)Nc1ccccc12)N(C)C(=O)[C@H](C)NC(=O)C(F)(F)C(F)(F)C(F)(F)F [Example 137]
- IC50 (SARS-CoV-2 3CL-protease; [3]): < 100 nM
- EC50 [1]: < 100 nM

Compound: [2H]C([2H])([2H])N(C(=O)[C@H](CC1CC1)NC(=O)c1ccc(F)cc1)[C@@H](CC1CC1)C(=O)N1C[C@]2(C[C@H]1C#N)C(=O)Nc1ccccc12 [Example 140]
- IC50 (SARS-CoV-2 3CL-protease; [4]): < 100 nM
- EC50 [1, 2]: < 100 nM

Compound: Cc1cccc(C)c1C(=O)N[C@@H](C)C(=O)N(C)[C@@H](CC(C)C)C(=O)N1C[C@]2(C[C@H]1C#N)C(=O)Nc1ccccc12 [Example 148]
- IC50 (SARS-CoV-2 3CL-protease; [4]): < 100 nM
- EC50 [1, 2]: < 100 nM

Compound: CC(C)C[C@@H](C(=O)N1C[C@]2(C[C@H]1C#N)C(=O)Nc1ccccc12)N(C)C(=O)[C@H](C)NC(=O)c1ccc(-c2ccc(F)cc2)cc1F [Example 149]
- IC50 (SARS-CoV-2 3CL-protease; [4]): < 100 nM
- EC50 [1, 2]: < 100 nM

Compound: CC(C)C[C@@H](C(=O)N1C[C@]2(C[C@H]1C#N)C(=O)Nc1ccccc12)N(C)C(=O)[C@H](C)NC(=O)c1ccccc1-c1ccc(C(F)(F)F)cc1 [Example 150]
- IC50 (SARS-CoV-2 3CL-protease; [4]): < 100 nM
- EC50 [1, 2]: 100 to 1000 nM

Compound: CC(C)C[C@@H](C(=O)N1C[C@]2(C[C@H]1C#N)C(=O)Nc1ccccc12)N(C)C(=O)[C@H](C)NC(=O)c1ccc(F)c(-c2ccc(F)cc2)c1 [Example 151]
- IC50 (SARS-CoV-2 3CL-protease; [4]): < 100 nM
- EC50 [1, 2]: 100 to 1000 nM

Compound: C[C@@H](C(=O)N(C)[C@@H](CC(C)(C)C)C(=O)N1C[C@]2(C[C@H]1C#N)C(=O)Nc1ccccc12)N1CCCC1=O [Example 152]
- IC50 (SARS-CoV-2 3CL-protease; [4]): 100 to 1000 nM
- EC50 [1, 2]: 100 to 1000 nM

Compound: C[C@H](NC(=O)c1ccc(OC(F)(F)F)cc1)C(=O)N(C)[C@@H](CC(C)(C)C)C(=O)N1C[C@]2(C[C@H]1C#N)C(=O)Nc1ccccc12 [Example 153]
- IC50 (SARS-CoV-2 3CL-protease; [4]): < 100 nM
- EC50 [1, 2]: < 100 nM

Compound: C[C@H](NC(=O)c1ccc(F)cc1F)C(=O)N(C)[C@@H](CC(C)(C)C)C(=O)N1C[C@]2(C[C@H]1C#N)C(=O)Nc1ccccc12 [Example 154]
- IC50 (SARS-CoV-2 3CL-protease; [4]): < 100 nM
- EC50 [1, 2]: < 100 nM

Compound: C[C@H](NC(=O)c1ccc(F)c(Cl)c1)C(=O)N(C)[C@@H](CC(C)(C)C)C(=O)N1C[C@]2(C[C@H]1C#N)C(=O)Nc1ccccc12 [Example 155]
- IC50 (SARS-CoV-2 3CL-protease; [4]): < 100 nM
- EC50 [1, 2]: < 100 nM

Compound: C[C@H](NC(=O)c1ccc(F)c(F)c1)C(=O)N(C)[C@@H](CC(C)(C)C)C(=O)N1C[C@]2(C[C@H]1C#N)C(=O)Nc1ccccc12 [Example 156]
- IC50 (SARS-CoV-2 3CL-protease; [4]): < 100 nM
- EC50 [1, 2]: < 100 nM

Compound: C[C@@H](C(=O)N(C)[C@@H](CC(C)(C)C)C(=O)N1C[C@]2(C[C@H]1C#N)C(=O)Nc1ccccc12)n1cc(C2CC2)nn1 [Example 157]
- IC50 (SARS-CoV-2 3CL-protease; [4]): < 100 nM
- EC50 [1, 2]: < 100 nM

Compound: CC(C)C[C@@H](C(=O)N1C[C@]2(C[C@H]1C#N)C(=O)Nc1ccccc12)N(C)C(=O)[C@@H]1CC[C@@H](c2ccccc2)N1 [Example 158]
- IC50 (SARS-CoV-2 3CL-protease; [4]): < 100 nM
- EC50 [1, 2]: < 100 nM

Compound: CC(C)C[C@@H](C(=O)N1C[C@]2(C[C@H]1C#N)C(=O)Nc1ccccc12)N(C)C(=O)[C@@H]1CC[C@H](c2ccccc2)N1 [Example 159]
- IC50 (SARS-CoV-2 3CL-protease; [4]): < 100 nM
- EC50 [1, 2]: 100 to 1000 nM

Compound: CC(C)C[C@@H](C(=O)N1C[C@]2(C[C@H]1C#N)C(=O)Nc1ccccc12)N(C)C(=O)[C@@H]1CCCN1C [Example 160]
- IC50 (SARS-CoV-2 3CL-protease; [4]): < 100 nM
- EC50 [1, 2]: < 100 nM

Compound: CC(C)C[C@@H](C(=O)N1C[C@]2(C[C@H]1C#N)C(=O)Nc1ccccc12)N(C)C(=O)[C@@H]1CCCN1C(C)C [Example 161]
- IC50 (SARS-CoV-2 3CL-protease; [4]): < 100 nM
- EC50 [1, 2]: < 100 nM

Compound: CC(C)C[C@@H](C(=O)N1C[C@]2(C[C@H]1C#N)C(=O)Nc1ccccc12)N(C)C(=O)[C@@H]1CC[C@@H](c2ccccc2)N1C(C)C [Example 162]
- IC50 (SARS-CoV-2 3CL-protease; [4]): < 100 nM
- EC50 [1, 2]: < 100 nM

Compound: Cc1ncc(C(=O)N[C@@H](C)C(=O)N(C)[C@@H](CC(C)C)C(=O)N2C[C@]3(C[C@H]2C#N)C(=O)Nc2ccccc23)s1 [Example 163]
- IC50 (SARS-CoV-2 3CL-protease; [4]): < 100 nM
- EC50 [1, 2]: < 100 nM

Compound: CC(C)C[C@@H](C(=O)N1C[C@]2(C[C@H]1C#N)C(=O)Nc1ccccc12)N(C)C(=O)[C@H](C)NC(=O)c1ccc(F)cn1 [Example 164]
- IC50 (SARS-CoV-2 3CL-protease; [4]): < 100 nM
- EC50 [1, 2]: < 100 nM

Compound: CC(C)C[C@@H](C(=O)N1C[C@]2(C[C@H]1C#N)C(=O)Nc1ccccc12)N(C)C(=O)[C@H](C)NC(=O)c1ccc(F)c(F)c1 [Example 165]
- IC50 (SARS-CoV-2 3CL-protease; [4]): < 100 nM
- EC50 [1, 2]: < 100 nM

Compound: Cc1cc(C(=O)N[C@@H](C)C(=O)N(C)[C@@H](CC(C)C)C(=O)N2C[C@]3(C[C@H]2C#N)C(=O)Nc2ccccc23)no1 [Example 166]
- IC50 (SARS-CoV-2 3CL-protease; [4]): < 100 nM
- EC50 [1, 2]: < 100 nM

Compound: CC(C)C[C@H]1C(=O)N2C[C@]3(C[C@H]2C#N)C(=O)Nc2ccc(cc23)CCCCC[C@H](NC(=O)OC(C)(C)C)C(=O)N1C [Example 373]
- IC50 (SARS-CoV-2 3CL-protease; [4]): < 100 nM
- EC50 [1, 2]: 100 to 1000 nM

Compound: C[C@@H]1NC(=O)CCCCCc2ccc3c(c2)[C@@]2(C[C@@H](C#N)N(C2)C(=O)[C@H](CC(C)(C)C)NC1=O)C(=O)N3 [Example 375]
- IC50 (SARS-CoV-2 3CL-protease; [4]): > 1000 nM

Compound: C[C@@H]1NC(=O)CCCCCCCc2ccc3c(c2)[C@@]2(C[C@@H](C#N)N(C2)C(=O)[C@H](CC(C)(C)C)NC1=O)C(=O)N3 [Example 376]
- IC50 (SARS-CoV-2 3CL-protease; [4]): > 1000 nM

Compound: C[C@@H]1NC(=O)CCCCc2ccc3c(c2)[C@@]2(C[C@@H](C#N)N(C2)C(=O)[C@H](CC(C)(C)C)N(C)C1=O)C(=O)N3 [Example 377]
- IC50 (SARS-CoV-2 3CL-protease; [4]): < 100 nM

Compound: C[C@@H]1NC(=O)CCCc2ccc3c(c2)[C@@]2(C[C@@H](C#N)N(C2)C(=O)[C@H](CC(C)(C)C)N(C)C1=O)C(=O)N3 [Example 378]
- IC50 (SARS-CoV-2 3CL-protease; [4]): < 100 nM

Compound: C[C@@H]1NC(=O)CCCCCCc2ccc3c(c2)[C@@]2(C[C@@H](C#N)N(C2)C(=O)[C@H](CC(C)(C)C)NC1=O)C(=O)N3 [Example 379]
- IC50 (SARS-CoV-2 3CL-protease; [4]): > 1000 nM
